The values below come from patent publication US10865316B2 (Clemson University Research Foundation, priority 2015, dated 2020).

For one experiment, the system named is oyster hemocytes. It is filed as cell-based.
The test system of another experiment is 3-day old cyprid. The conditions noted are these: in vivo.

Entries after “also recorded” stand apart in the source; their conditions may differ.

Take “pGlu Gly Val Cys Cys Gly Tyr Lys Leu Cys His Hyp Cys-NH2 [SEQ ID NO: 13]”: in the experiment on oyster hemocytes, the “apoptosis in oyster hemocytes” value is listed as “cause apoptosis”. The cyprid settlement entry in the experiment on 3-day old cyprid was “inhibited cyprid settlement; also recorded: promoted settlement”.
